# Assay results published in patent publication EP0552417B1, “Cyclic peptides and use thereof” (priority 1991, dated 1993).
# Non-standard residues stand in square brackets, D forms with d. Residues, ends and D or L forms follow the SMILES beside them. *: point of attachment. 1Nal = N[C@@H](Cc1cccc2ccccc12)C(=O)O; Bn = c1ccc(C*)cc1
# Experiments:
# [1] = biological target: T1, endothelin receptor B (ETB) (Bos taurus, UniProt P28088); assay: Assay of affinity for receptor (2): binding activity on ETB receptor *1, 125I-labeled endothelin-1, bovine brain membrane fraction; conditions: 1 hour; for Binding Activity on ET Receptor (R. act.) ETB*1: specific activity, taking the binding activity of the compound of Example 8 on receptor B as 100, 25°C
# T1 construct: A membrane fraction prepared from the bovine brain; from tissue; host or cells: bovine brain membrane fraction
# T1 sequence (P28088 27-441): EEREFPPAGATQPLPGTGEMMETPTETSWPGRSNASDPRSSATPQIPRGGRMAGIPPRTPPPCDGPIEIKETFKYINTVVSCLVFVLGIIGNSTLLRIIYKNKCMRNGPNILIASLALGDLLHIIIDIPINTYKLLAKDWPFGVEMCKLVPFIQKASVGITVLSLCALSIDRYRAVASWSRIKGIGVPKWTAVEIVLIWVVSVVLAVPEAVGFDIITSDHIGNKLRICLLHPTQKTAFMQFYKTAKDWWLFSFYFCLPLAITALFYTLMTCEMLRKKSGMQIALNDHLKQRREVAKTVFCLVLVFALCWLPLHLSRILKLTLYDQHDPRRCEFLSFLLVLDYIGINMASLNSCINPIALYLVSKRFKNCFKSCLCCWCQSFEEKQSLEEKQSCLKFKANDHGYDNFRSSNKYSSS
# Method: Assay of Affinity for Receptor (2) ... Binding Activity on ETB Receptor *1
# A membrane fraction prepared from the bovine brain was diluted to 0.15 mg/ml by using a buffer solution for assay, and 100 µl of the resulting suspension of the membrane fraction was poured into each assay tube to use for assay. To this suspension of the membrane fraction was added 2 µl of 5 nM ^125I labeled endothelin-1 solution. Further, 3 µl of a test peptide solution was added thereto, followed by incubation at a temperature of 25°C for 1 hour. Then, the resulting suspension was diluted with 900 µl of the buffer solution for assay cooled with ice, and thereafter separated into a supernatant and a precipitate by centrifugation at 12,000 X g for 10 minutes. Cell membranes and an endothelin receptor B (ETB) embedded therein were contained in the precipitate, and radioactive iodine-labeled endothelin bound to the receptor was also recovered in the precipitate. Accordingly, the amount of radioactive iodine-labeled endothelin bound to the endothelin receptor B (ETB) was determined by measuring the amount of radioactive iodine contained in the precipitate with a gamma-ray counter. The numerical value of ETB shown in Table 1 is the value of specific activity, taking the binding activity of the compound of Example 8 on the receptor B as 100.
# NK2 receptor = biological target: T2, NK2 receptor (Bos taurus, UniProt P05363); assay: Assay of affinity for receptor (3): binding inhibiting activity on NK2 receptor, 125I-neurokinin A, membrane fraction of bovine third stomach inner wall; conditions: 125I-NKA, 25°C, 3 hours
# T2 construct: The membrane fraction containing the receptor was prepared from the inner wall of the bovine third stomach; tissue Kyoto Chuo Chikusan Fukuseibutsu Oroshi Kyoukai (tissue); host or cells: inner wall of bovine third stomach, membrane fraction
# T2 sequence (P05363 1-384): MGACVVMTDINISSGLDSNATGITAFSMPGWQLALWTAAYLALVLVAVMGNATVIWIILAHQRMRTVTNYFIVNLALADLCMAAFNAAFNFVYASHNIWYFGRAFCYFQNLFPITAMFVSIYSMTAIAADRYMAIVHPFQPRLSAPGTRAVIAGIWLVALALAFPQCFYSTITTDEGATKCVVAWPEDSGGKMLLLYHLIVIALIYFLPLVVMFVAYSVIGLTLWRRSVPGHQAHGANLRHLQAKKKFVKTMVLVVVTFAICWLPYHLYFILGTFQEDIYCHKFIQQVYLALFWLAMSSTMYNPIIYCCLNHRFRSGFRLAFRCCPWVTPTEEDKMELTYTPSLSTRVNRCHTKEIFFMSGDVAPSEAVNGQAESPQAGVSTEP
# Method: Assay of Affinity for Receptor (3) ... Binding Inhibiting Activity on NK2 Receptor
# The method of Paul L. M. Van Giersbergen et al. [Proc. Natl. Acad. Sci. U.S.A., 88, 1661 (1991) was modified for this assay. The membrane fraction containing the receptor was prepared from the inner wall of the bovine third stomach (purchased from Kyoto Chuo Chikusan Fukuseibutsu Oroshi Kyoukai).
# The inner wall of the bovine third stomach stored at-80°C was cut to 1 cm X 1 cm or less, and disrupted in 3 liters/kg of 50 mM Tris-HCl buffer (pH 7.4) supplemented with 120 mM sodium chloride, 5 mM potassium chloride, 0.02% BSA and 5% sucrose, using a polytron homogenizer (Kinematika, Germany). Then, the disrupted product was centrifuged at 1,000 X g for 10 minutes. The supernatant was further centrifuged at 45,000 X g for 20 minutes. The precipitate was suspended in 200 ml of 50 mM Tris-HCl buffer (pH 7.4) supplemented with 300 mM potassium chloride, 10 mM ethylenediaminetetraacetic acid, 0.1 mM phenylmethylsulfonium fluoride and 0.02% BSA, and gently stirred under ice cooling for 60 minutes. The suspension was centrifuged at 45,000 X g for 20 minutes. The precipitate was washed with 200 ml of 50 mM Tris-HCl buffer (pH 7.4), and stored in the frozen state at -40°C as a receptor sample.
# This sample was suspended in a reaction buffer solution [50 mM Tris-HCl buffer (pH 7.4), 0.02% bovine serum albumin and 4 mM manganese chloride] so as to give a protein concentration of 0.7 mg/ml, and 100 µl thereof was used for reaction. A test sample and ^125I-NKA (0.61 KBq, ^125I-neurokinin A, 81.4 TBq/mmol, Du Pont/NEN Research Products, U.S.A.) were also added, and reacted in 0.2 ml of the reaction buffer solution at 25°C for 3 hours. The reaction mixture was rapidly filtered through a glass filter (GF/B, Whatman, U.S.A.) using a cell harvester (Type 290PHD, Cambridge Technology Inc.) to terminate the reaction, and washed 3 times with 250 µl of 50 mM Tris-HCl buffer (pH 7.4) supplemented with 0.02% bovine serum albumin. The radioactivity left on the filter was measured with a gamma-ray counter. Results are shown in Table 1 as the binding inhibiting activity (IC50, unit: µM) on the NK2 receptor.
Binding Activity on ET Receptor (R. act.) ETB*1 [1],IC50 (NK2 receptor),IC50 ([1]; 25°C),Structure (SMILES)
11,2100 nM,–,"CC(C)C[C@@H]1NC(=O)[C@@H](CC(C)C)NC(=O)[C@H](CC(=O)O)NC(=O)[C@H](Cc2cccc3ccccc23)NC(=O)[C@@H](CC(=O)O)NC(=O)[C@@H](Cc2c[nH]c3ccccc23)NC1=O [Example 23, Cyclo[-D-Asp-Nal(1)-Asp-D-Leu-Leu-D-Trp-]] (cyclo([1Nal]D[dL]L[dW][dD]))"
40,1100 nM,–,"CC(C)C[C@@H]1NC(=O)[C@@H](CC(C)C)NC(=O)[C@@H]2CCCN2C(=O)[C@H](Cc2c[nH]c3ccccc23)NC(=O)[C@@H](CC(=O)O)NC(=O)[C@@H](Cc2c[nH]c3ccccc23)NC1=O [Example 36, Cyclo[-D-Asp-Trp-Pro-D-Leu-Leu-D-Trp-]] (cyclo(L[dW][dD]WP[dL]))"
77,7400 nM,–,"CC(C)C[C@@H]1NC(=O)[C@@H](CC(C)C)NC(=O)[C@H](CCC(=O)O)NC(=O)[C@H](Cc2c[nH]c3ccccc23)NC(=O)[C@@H](CC(=O)O)NC(=O)[C@@H](Cc2c[nH]c3ccccc23)NC1=O [Example 34, Cyclo[-D-Asp-Trp-Glu-D-Leu-Leu-D-Trp-]] (cyclo(E[dL]L[dW][dD]W))"
52,52 nM,–,"CC(C)C[C@@H]1NC(=O)[C@H](Cc2c[nH]c3ccccc23)NC(=O)[C@@H](CC(=O)O)NC(=O)[C@@H](Cc2c[nH]c3ccccc23)NC(=O)[C@H](CC(C)C)NC(=O)[C@@H](CC(C)C)NC1=O [Example 35, Cyclo[-D-Asp-Trp-Leu-D-Leu-Leu-D-Trp-]] (cyclo(L[dL]L[dW][dD]W))"
22,280 nM,–,"CC(C)C[C@@H]1NC(=O)[C@@H](CC(C)C)NC(=O)[C@H](CO)NC(=O)[C@H](Cc2c[nH]c3ccccc23)NC(=O)[C@@H](CC(=O)O)NC(=O)[C@@H](Cc2c[nH]c3ccccc23)NC1=O [Example 37, Cyclo[-D-Asp-Trp-Ser-D-Leu-Leu-D-Trp-]] (cyclo(L[dW][dD]WS[dL]))"
66,70 nM,–,"CC(C)C[C@@H]1NC(=O)[C@@H](CC(C)C)NC(=O)[C@H](COCc2ccccc2)NC(=O)[C@H](Cc2c[nH]c3ccccc23)NC(=O)[C@@H](CC(=O)O)NC(=O)[C@@H](Cc2c[nH]c3ccccc23)NC1=O [Example 38, Cyclo[-D-Asp-Trp-Ser(Bzl)-D-Leu-Leu-D-Trp-]] (cyclo(L[dW][dD]WS(Bn)[dL]))"
100,6400 nM,3000 nM,"CC(C)C[C@@H]1NC(=O)[C@@H](CC(C)C)NC(=O)[C@H](CC(=O)O)NC(=O)[C@H](Cc2c[nH]c3ccccc23)NC(=O)[C@@H](CC(=O)O)NC(=O)[C@@H](Cc2c[nH]c3ccccc23)NC1=O [Example 8, cyclo[-D-Asp-Trp-Asp-D-Leu-Leu-D-Trp-]] (cyclo(D[dL]L[dW][dD]W))"
